Results taken from patent publication US20220411380A1, “ACID ADDITION SALT OF RORy REGULATOR” (JIANGSU HENGRUI MEDICINE CO., LTD., priority 2019, published 2022).

Assays:
Format in all cases: physicochemical
[1] = DVS (dynamic vapor sorption) characterization
Procedure: DVS refers to dynamic vapor sorption: The measurement was conducted with a Surface Measurement Systems advantage 2 at 25° C., starting from 50% humidity in humidity range of 0%-95% with a step size of 10%. The judging criterion was that the mass change of each gradient dM/dT is less than 0.002 and TMAX is less than 360 min in two circles.

[2] = Influencing factor study of crystalline form α of hydrochloride and crystalline form I of hydrobromide
Procedure: Sample of the crystalline form α of the hydrochloride and the crystalline form I of the hydrobromide of the compound of formula II were let stand open to examine the stability of the samples in conditions of illumination (4500 Lux), high temperature (40° C. and 60° C.) and high humidity (RH 75% and RH 92.5%) in a period of 30 days.

[3] = Long-term/accelerated stability study of crystalline form α of hydrochloride and crystalline form I of hydrobromide
Procedure: The crystalline form α of the hydrochloride of the compound of formula II was let stand in conditions of 25° C./60% RH and 40° C./75% RH to examine its stability.
The crystalline form I of the hydrobromide of the compound of formula II was let stand in conditions of 25° C./60% RH and 40° C./75% RH to examine its stability.

SMILES: Cl.NC(=O)C[C@H](c1ccc(S(=O)(=O)CC2CC2)cc1)c1nc2cc(-c3ccccc3OC(F)F)c(Cl)cc2[nH]1 [Crystalline form α of hydrochloride of compound of formula I]
- Crystalline form before and after DVS (XRPD comparison) ([1]; 0-95% humidity change): crystalline form did not change during DVS
- DVS weight change ([1]; 25° C., 20.0% RH to 80.0% RH): 0.549%
- Hygroscopicity ([1]; DVS, 25° C., 20.0% RH to 80.0% RH): slightly hygroscopic
- Vapor sorption ([1]; accelerated test condition, 70% humidity): about 0.574%
- Vapor sorption ([1]; extreme condition, 90% humidity): about 1.040%
- Vapor sorption ([1]; normal storage condition, 60% humidity/25° C.): about 0.463%
- Chiral purity (%) ([2]; 40° C., 7 days): 99.131%
- Color and appearance ([2]; 40° C., 7 days): White solid
- Crystalline form ([2]; 40° C., 7 days): Not changed
- Main peak purity (%) ([2]; 40° C., 7 days): 96.915%
- Chiral purity (%) ([2]; 40° C., 14 days): 99.115%
- Color and appearance ([2]; 40° C., 14 days): White solid
- Crystalline form ([2]; 40° C., 14 days): Not changed
- Main peak purity (%) ([2]; 40° C., 14 days): 96.921%
- Chiral purity (%) ([2]; 40° C., 30 days): 99.207%
- Chloride ion content (%) ([2]; 40° C., 30 days): 5.75%
- Color and appearance ([2]; 40° C., 30 days): White solid
- Crystalline form ([2]; 40° C., 30 days): Not changed
- Main peak purity (%) ([2]; 40° C., 30 days): 96.824%
- Chiral purity (%) ([2]; 60° C., 7 days): 99.136%
- Color and appearance ([2]; 60° C., 7 days): White solid
- Crystalline form ([2]; 60° C., 7 days): Not changed
- Main peak purity (%) ([2]; 60° C., 7 days): 96.884%
- Chiral purity (%) ([2]; 60° C., 14 days): 99.106%
- Color and appearance ([2]; 60° C., 14 days): White solid
- Crystalline form ([2]; 60° C., 14 days): Not changed
- Main peak purity (%) ([2]; 60° C., 14 days): 96.907%
- Chiral purity (%) ([2]; 60° C., 30 days): 99.232%
- Chloride ion content (%) ([2]; 60° C., 30 days): 5.65%
- Color and appearance ([2]; 60° C., 30 days): White solid
- Crystalline form ([2]; 60° C., 30 days): Not changed
- Main peak purity (%) ([2]; 60° C., 30 days): 96.814%
- Chiral purity (%) ([2]; 75% RH, 7 days): 99.138%
- Color and appearance ([2]; 75% RH, 7 days): White solid
- Crystalline form ([2]; 75% RH, 7 days): Not changed
- Main peak purity (%) ([2]; 75% RH, 7 days): 96.916%
- Chiral purity (%) ([2]; 75% RH, 14 days): 99.130%
- Color and appearance ([2]; 75% RH, 14 days): White solid
- Crystalline form ([2]; 75% RH, 14 days): Not changed
- Main peak purity (%) ([2]; 75% RH, 14 days): 96.908%
- Chiral purity (%) ([2]; 75% RH, 30 days): 99.220%
- Chloride ion content (%) ([2]; 75% RH, 30 days): 5.68%
- Color and appearance ([2]; 75% RH, 30 days): White solid
- Crystalline form ([2]; 75% RH, 30 days): Not changed
- Main peak purity (%) ([2]; 75% RH, 30 days): 96.903%
- Chiral purity (%) ([2]; 92.5% RH, 7 days): 99.132%
- Color and appearance ([2]; 92.5% RH, 7 days): White solid
- Crystalline form ([2]; 92.5% RH, 7 days): Not changed
- Main peak purity (%) ([2]; 92.5% RH, 7 days): 96.912%
- Chiral purity (%) ([2]; 92.5% RH, 14 days): 99.111%
- Color and appearance ([2]; 92.5% RH, 14 days): White solid
- Crystalline form ([2]; 92.5% RH, 14 days): Not changed
- Main peak purity (%) ([2]; 92.5% RH, 14 days): 96.908%
- Chiral purity (%) ([2]; 92.5% RH, 30 days): 99.211%
- Chloride ion content (%) ([2]; 92.5% RH, 30 days): 5.67%
- Color and appearance ([2]; 92.5% RH, 30 days): White solid
- Crystalline form ([2]; 92.5% RH, 30 days): Not changed
- Main peak purity (%) ([2]; 92.5% RH, 30 days): 96.880%
- Chiral purity (%) ([2]; 4500 Lux, 7 days): 99.137%
- Color and appearance ([2]; 4500 Lux, 7 days): White solid
- Crystalline form ([2]; 4500 Lux, 7 days): Not changed
- Main peak purity (%) ([2]; 4500 Lux, 7 days): 96.911%
- Chiral purity (%) ([2]; 4500 Lux, 14 days): 99.139%
- Color and appearance ([2]; 4500 Lux, 14 days): White solid
- Crystalline form ([2]; 4500 Lux, 14 days): Not changed
- Main peak purity (%) ([2]; 4500 Lux, 14 days): 96.911%
- Chiral purity (%) ([2]; 4500 Lux, 30 days): 99.216%
- Chloride ion content (%) ([2]; 4500 Lux, 30 days): 5.71%
- Color and appearance ([2]; 4500 Lux, 30 days): White solid
- Crystalline form ([2]; 4500 Lux, 30 days): Not changed
- Main peak purity (%) ([2]; 4500 Lux, 30 days): 96.810%
- Chiral purity (%) ([2]; Initial, 0 days): 99.14%
- Chloride ion content (%) ([2]; Initial, 0 days): 5.75%
- Color and appearance ([2]; Initial, 0 days): White solid
- Crystalline form ([2]; Initial, 0 days): Crystalline
- Main peak purity (%) ([2]; Initial, 0 days): 96.925%
- Stability (conclusion of influencing factor study) ([2]; illumination, 40° C. and 60° C., high humidities of 75% and 92.5%): good physical and chemical stabilities
- Chiral purity (%) ([3]; 25° C., 60% RH, Day 7): 99.131%
- Color and appearance ([3]; 25° C., 60% RH, Day 7): White solid
- Crystalline form ([3]; 25° C., 60% RH, Day 7): Not changed
- Main peak purity (%) ([3]; 25° C., 60% RH, Day 7): 96.915%
- Chiral purity (%) ([3]; 25° C., 60% RH, Day 14): 99.111%
- Color and appearance ([3]; 25° C., 60% RH, Day 14): White solid
- Crystalline form ([3]; 25° C., 60% RH, Day 14): Not changed
- Main peak purity (%) ([3]; 25° C., 60% RH, Day 14): 96.831%
- Chiral purity (%) ([3]; 25° C., 60% RH, Month 1): 99.225%
- Chloride ion content (%) ([3]; 25° C., 60% RH, Month 1): 5.75%
- Color and appearance ([3]; 25° C., 60% RH, Month 1): White solid
- Crystalline form ([3]; 25° C., 60% RH, Month 1): Not changed
- Main peak purity (%) ([3]; 25° C., 60% RH, Month 1): 96.906%
- Chiral purity (%) ([3]; 25° C., 60% RH, Month 2): 99.332%
- Chloride ion content (%) ([3]; 25° C., 60% RH, Month 2): 5.74%
- Color and appearance ([3]; 25° C., 60% RH, Month 2): White solid
- Crystalline form ([3]; 25° C., 60% RH, Month 2): Not changed
- Main peak purity (%) ([3]; 25° C., 60% RH, Month 2): 96.883%
- Chiral purity (%) ([3]; 25° C., 60% RH, Month 3): 99.239%
- Color and appearance ([3]; 25° C., 60% RH, Month 3): White solid
- Crystalline form ([3]; 25° C., 60% RH, Month 3): Not changed
- Main peak purity (%) ([3]; 25° C., 60% RH, Month 3): 96.749%
- Chiral purity (%) ([3]; 25° C., 60% RH, Month 6): 99.187%
- Chloride ion content (%) ([3]; 25° C., 60% RH, Month 6): 5.85%
- Color and appearance ([3]; 25° C., 60% RH, Month 6): White solid
- Crystalline form ([3]; 25° C., 60% RH, Month 6): Not changed
- Main peak purity (%) ([3]; 25° C., 60% RH, Month 6): 96.170%
- Chiral purity (%) ([3]; 40° C., 75% RH, Day 7): 99.137%
- Color and appearance ([3]; 40° C., 75% RH, Day 7): White solid
- Crystalline form ([3]; 40° C., 75% RH, Day 7): Not changed
- Main peak purity (%) ([3]; 40° C., 75% RH, Day 7): 96.906%
- Chiral purity (%) ([3]; 40° C., 75% RH, Day 14): 99.104%
- Color and appearance ([3]; 40° C., 75% RH, Day 14): White solid
- Crystalline form ([3]; 40° C., 75% RH, Day 14): Not changed
- Main peak purity (%) ([3]; 40° C., 75% RH, Day 14): 96.902%
- Chiral purity (%) ([3]; 40° C., 75% RH, Month 1): 99.206%
- Chloride ion content (%) ([3]; 40° C., 75% RH, Month 1): 5.44%
- Color and appearance ([3]; 40° C., 75% RH, Month 1): White solid
- Crystalline form ([3]; 40° C., 75% RH, Month 1): Not changed
- Main peak purity (%) ([3]; 40° C., 75% RH, Month 1): 96.846%
- Chiral purity (%) ([3]; 40° C., 75% RH, Month 2): 99.292%
- Chloride ion content (%) ([3]; 40° C., 75% RH, Month 2): 5.86%
- Color and appearance ([3]; 40° C., 75% RH, Month 2): White solid
- Crystalline form ([3]; 40° C., 75% RH, Month 2): Not changed
- Main peak purity (%) ([3]; 40° C., 75% RH, Month 2): 96.780%
- Chiral purity (%) ([3]; 40° C., 75% RH, Month 3): 99.149%
- Color and appearance ([3]; 40° C., 75% RH, Month 3): White solid
- Crystalline form ([3]; 40° C., 75% RH, Month 3): Not changed
- Main peak purity (%) ([3]; 40° C., 75% RH, Month 3): 96.664%
- Chiral purity (%) ([3]; 40° C., 75% RH, Month 6): 98.972%
- Chloride ion content (%) ([3]; 40° C., 75% RH, Month 6): 5.98%
- Color and appearance ([3]; 40° C., 75% RH, Month 6): White solid
- Crystalline form ([3]; 40° C., 75% RH, Month 6): Not changed
- Main peak purity (%) ([3]; 40° C., 75% RH, Month 6): 95.990%
- Chiral purity (%) ([3]; Initial, 0): 99.14%
- Chloride ion content (%) ([3]; Initial, 0): 5.75%
- Color and appearance ([3]; Initial, 0): White solid
- Crystalline form ([3]; Initial, 0): Crystalline
- Main peak purity (%) ([3]; Initial, 0): 96.925%
- Stability (conclusion of long-term/accelerated study) ([3]; long term and acceleration, 6 months): good physical and chemical stability
